Patent US20230158020A1, “Method for treating RNA viral infections, including COVID-19 (SARS-CoV-2)” (priority 2020, published 2023)
Like-named read-outs stand apart in the source and are kept apart here.

Legend:
SARS-CoV-2 = type: in vivo
COVID-19 = conditions: patients with confirmed COVID-19; FVP orally 1600 mg twice a day on day 1, 600 mg twice a day days 2-14, plus interferon-α aerosol 5 million units twice a day; control lopinavir/ritanovir 400 mg/100 mg twice a day; cited from earlier work

NC(=O)c1nc(F)c[nH]c1=O [FVP, Favipiravir]
virus elimination rate (SARS-CoV-2; patients with FVP dose <43 mg/kg on day 1): 44% | virus elimination rate (SARS-CoV-2; patients with FVP dose ≥43 mg/kg on day 1): 79% | viral clearance (COVID-19): 4 days
